Test results as given in BindingDB's records for doi:10.1016/j.ab.2004.03.009 (Schering-Plough Research Institute, 2004).

Biological target: E3 ubiquitin-protein ligase Mdm2 (Homo sapiens, UniProt Q00987)
Assay: Fluorescence Polarization (FP) Binding Assay
Details: pH 7.4; 23 °C
Experimental: Ki values were determined from a competition experiment in which serial dilutions of inhibitor were added to compete against a fixed concentration (1 or 10 nM) of the fluorescent ligand for binding to a fixed concentration of the protein. Ki value was determined by nonlinear regression fitting of the competition curve using a set of custom equations and an Excel curve fitting tool.

Chain of E3 ubiquitin-protein ligase Mdm2 (Q00987 whole entry): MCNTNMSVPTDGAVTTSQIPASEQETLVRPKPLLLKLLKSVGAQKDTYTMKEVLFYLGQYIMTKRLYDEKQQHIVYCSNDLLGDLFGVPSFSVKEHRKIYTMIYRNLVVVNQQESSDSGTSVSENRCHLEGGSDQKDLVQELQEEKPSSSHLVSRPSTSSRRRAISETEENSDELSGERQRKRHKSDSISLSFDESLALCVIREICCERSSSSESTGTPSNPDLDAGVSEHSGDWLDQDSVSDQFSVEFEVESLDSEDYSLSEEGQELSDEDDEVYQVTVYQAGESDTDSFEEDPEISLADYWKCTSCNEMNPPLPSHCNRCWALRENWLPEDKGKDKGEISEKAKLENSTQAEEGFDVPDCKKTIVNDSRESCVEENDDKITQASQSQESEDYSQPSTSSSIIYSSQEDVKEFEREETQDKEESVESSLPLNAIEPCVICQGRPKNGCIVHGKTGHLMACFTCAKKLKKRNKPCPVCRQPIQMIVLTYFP

Row | SMILES | Ki
1 | O=C(N[C@@H](Cc1c[nH]c2cc(Br)ccc12)C(=O)O)c1ccccc1Oc1ccccc1 [2-phenoxybenzoyltryptophan derivative, R1C1] | 3000 nM
2 | O=C(N[C@@H](Cc1cn(C(=O)CCC2CCCC2)c2cc(Br)ccc12)C(=O)O)c1ccccc1Oc1ccccc1 [2-phenoxybenzoyltryptophan derivative, R1C2] | 800 nM
3 | O=C(N[C@@H](Cc1c[nH]c2cc(Cl)ccc12)C(=O)O)c1ccccc1Oc1ccccc1 [2-phenoxybenzoyltryptophan derivative, R2C1] | 6000 nM
4 | O=C(N[C@@H](Cc1cn(Cc2ccc(OCc3ccccc3)cc2)c2cc(Cl)ccc12)C(=O)O)c1ccccc1Oc1ccccc1 [2-phenoxybenzoyltryptophan derivative, R2C4] | 1000 nM
5 | O=C(N[C@@H](Cc1cn(C(=O)CCC2CCCC2)c2cc(Cl)ccc12)C(=O)O)c1ccccc1Oc1ccccc1 [2-phenoxybenzoyltryptophan derivative, R2C2] | 800 nM
6 | O=C(N[C@@H](Cc1cn(Cc2ccc(OCc3ccccc3)cc2)c2cc(Br)ccc12)C(=O)O)c1ccccc1Oc1ccccc1 [2-phenoxybenzoyltryptophan derivative, R1C4] | 600 nM
7 | O=C(N[C@@H](Cc1cn(C(=O)OCc2ccccc2)c2cc(Br)ccc12)C(=O)O)c1ccccc1Oc1ccccc1 [2-phenoxybenzoyltryptophan derivative, R1C3] | 500 nM
8 | O=C(N[C@@H](Cc1c[nH]c2cc(F)ccc12)C(=O)O)c1ccccc1Oc1ccccc1 [2-phenoxybenzoyltryptophan derivative, R3C1] | 20000 nM
9 | O=C(N[C@@H](Cc1cn(C(=O)OCc2ccccc2)c2cc(Cl)ccc12)C(=O)O)c1ccccc1Oc1ccccc1 [2-phenoxybenzoyltryptophan derivative, R2C3] | 600 nM

Next, values leading:

Row | Ki | SMILES
10 | 600 nM | N#Cc1ccc2c(c1)c(C[C@H](NC(=O)c1ccccc1Oc1ccccc1)C(=O)O)cn2C(=O)OCc1ccccc1 [2-phenoxybenzoyltryptophan derivative, R4C3]
11 | 600 nM | N#Cc1ccc2c(c1)c(C[C@H](NC(=O)c1ccccc1Oc1ccccc1)C(=O)O)cn2C(=O)CCC1CCCC1 [2-phenoxybenzoyltryptophan derivative, R4C2]
12 | 200 nM | Cc1ccc2c(c1)c(C[C@H](NC(=O)c1ccccc1Oc1ccccc1)C(=O)O)cn2C(=O)CCC1CCCC1 [2-phenoxybenzoyltryptophan derivative, R5C2]
13 | 800 nM | O=C(N[C@@H](Cc1cn(C(=O)OCc2ccccc2)c2cc(F)ccc12)C(=O)O)c1ccccc1Oc1ccccc1 [2-phenoxybenzoyltryptophan derivative, R3C3]
14 | 10000 nM | Cc1ccc2[nH]cc(C[C@H](NC(=O)c3ccccc3Oc3ccccc3)C(=O)O)c2c1 [2-phenoxybenzoyltryptophan derivative, R5C1]
15 | 600 nM | Cc1ccc2c(c1)c(C[C@H](NC(=O)c1ccccc1Oc1ccccc1)C(=O)O)cn2Cc1ccc(OCc2ccccc2)cc1 [2-phenoxybenzoyltryptophan derivative, R5C4]
16 | 100 nM | Cc1ccc2c(c1)c(C[C@H](NC(=O)c1ccccc1Oc1ccccc1)C(=O)O)cn2C(=O)OCc1ccccc1 [2-phenoxybenzoyltryptophan derivative, R5C3]
17 | 1000 nM | N#Cc1ccc2c(c1)c(C[C@H](NC(=O)c1ccccc1Oc1ccccc1)C(=O)O)cn2Cc1ccc(OCc2ccccc2)cc1 [2-phenoxybenzoyltryptophan derivative, R4C4]
18 | 2000 nM | O=C(N[C@@H](Cc1cn(Cc2ccc(OCc3ccccc3)cc2)c2cc(F)ccc12)C(=O)O)c1ccccc1Oc1ccccc1 [2-phenoxybenzoyltryptophan derivative, R3C4]
19 | 10000 nM | N#Cc1ccc2[nH]cc(C[C@H](NC(=O)c3ccccc3Oc3ccccc3)C(=O)O)c2c1 [2-phenoxybenzoyltryptophan derivative, R4C1]
20 | 400 nM | O=C(N[C@@H](Cc1cn(C(=O)CCC2CCCC2)c2cc(F)ccc12)C(=O)O)c1ccccc1Oc1ccccc1 [2-phenoxybenzoyltryptophan derivative, R3C2]
